In brackets after ≈: the same amount, converted by molar mass.
Tests used:
Assay in all cases: Agar dilution MIC in DST agar (Ericsson and Sherris)
Type in all cases: cell-based
[1] = system: Salmonella Typhimurium 277; conditions: in vitro; for MIC: Salmonella enterica, TYPHIMURIUM, read-out: MIC Salm. 277
Description: (§1) Die antibiotische Aktivität der Testverbindungen in vitro wurde durch die Agarverdünnungsmethode nach Ericsson, H.M., und Sherris, S.C., 1971, Acta Path. Microb. Scand. Section B, Suppl. No. 217, Bd. 1-90, in DST Agara ermittelt. Die gefundenen, das Wachstum der Testorganismen noch hemmenden Minimalkonzentrationen (MIC = minimum inhibiting concentrations) werden in Mikrogramm pro Milliliter (µg/ml) für die geprüften Verbindungen in der Tabelle 1 angegeben.

[2] = system: Escherichia coli 2018; conditions: for MIC Esch. 2018: in vitro; for MIC: Escherichia coli, 2018, in vitro, read-out: MIC Esch. 2018
Description: as §1

[3] = system: Pseudomonas aeruginosa K 799/61; conditions: for MIC Pseu. 799: in vitro, agar dilution, DST agar; for MIC: Pseudomonas aeruginosa, K799/61, read-out: MIC Pseu. 799
Description: as §1

[4] = system: Staphylococcus aureus 2999; conditions: for MIC Staph. 2999: in vitro; for MIC: Staphylococcus aureus, 2999, in vitro, read-out: MIC Staph. 2999
Description: as §1

[5] = system: Staphylococcus aureus 10B; conditions: in vitro; for MIC: Staphylococcus aureus, 10B, read-out: MIC Staph. 10B
Description: as §1

[6] = system: Escherichia coli 205; conditions: for MIC Esch. 205: in vitro; for MIC: Escherichia coli, 205, in vitro, read-out: MIC Esch. 205
Description: as §1

[7] = system: Proteus morganii 1518; conditions: for MIC Prot. 1518: in vitro; for MIC: Morganella morganii, 1518, in vitro, read-out: MIC Prot. 1518
Description: as §1

[8] = system: Proteus morganii 2359; conditions: for MIC Prot. 2359: in vitro; for MIC: Morganella morganii, 2359, in vitro, read-out: MIC Prot. 2359
Description: as §1

Compound	MIC Salm. 277 [1]	MIC Esch. 2018 [2]	MIC Pseu. 799 [3]	MIC Staph. 2999 [4]	MIC Staph. 10B [5]	MIC Esch. 205 [6]	MIC Prot. 1518 [7]	MIC Prot. 2359 [8]	MIC [1]	MIC [2]	MIC [3]	MIC [4]	MIC [5]	MIC [6]	MIC [7]	MIC [8]
4-(4-Isobutyl-2,5-dimethyl-piperazinyl)-imidazolo[4,5-c]-rifamycin SV [Verbindung 76]	32 µg/mL	8 µg/mL	32 µg/mL	0.01 µg/mL	0.01 µg/mL	32 µg/mL	8 µg/mL	8 µg/mL	–	–	–	–	–	–	–	–
4-(4-Isobutyl-perhydrct-1,4-diazepinyl)-imidazolo(4,5-c]-rifamycin SV [Verbindung 77]	32 µg/mL	8 µg/mL	8 µg/mL	0.01 µg/mL	0.01 µg/mL	8 µg/mL	8 µg/mL	8 µg/mL	–	–	–	–	–	–	–	–
4-(4-Isobutyrylpiperazinyl)-imidazolo[4,5-c]rifamycin SV [Verbindung 70]	128 µg/mL	32 µg/mL	128 µg/mL	0.02 µg/mL	0.02 µg/mL	32 µg/mL	32 µg/mL	32 µg/mL	–	–	–	–	–	–	–	–
4-(4-Isopropylcarbamoylmethylpiperazinyl)-imidazolo-[4,5-c]rifamycin SV [Verbindung 72]	128 µg/mL	32 µg/mL	64 µg/mL	0.05 µg/mL	0.05 µg/mL	32 µg/mL	32 µg/mL	32 µg/mL	–	–	–	–	–	–	–	–
4-(4-Methoxycarbonylmethylpiperazinyl)-imidazolo[4,5-c]-rifamycin SV [Verbindung 71]	128 µg/mL	32 µg/mL	128 µg/mL	0.02 µg/mL	0.02 µg/mL	32 µg/mL	32 µg/mL	32 µg/mL	–	–	–	–	–	–	–	–
4-(4-Morpholinocarbonylmethylpiperazinyl)-imidazolo-[4,5-c]rifamycin SV [Verbindung 73]	128 µg/mL	128 µg/mL	128 µg/mL	0.05 µg/mL	0.05 µg/mL	128 µg/mL	32 µg/mL	32 µg/mL	–	–	–	–	–	–	–	–
4-(4-Propyliperazinyl)-imidazolo[4,5-c]rifamycin SV [Verbindung 32]	32 µg/mL	8 µg/mL	8 µg/mL	0.001 µg/mL	0.001 µg/mL	8 µg/mL	8 µg/mL	8 µg/mL	–	–	–	–	–	–	–	–
4-(N-Benzyl-N-methylamino)-imidazolo[4,5-c]rifamycin SV [Verbindung 12]	32 µg/mL	8 µg/mL	8 µg/mL	0.001 µg/mL	0.001 µg/mL	8 µg/mL	1 µg/mL	8 µg/mL	–	–	–	–	–	–	–	–
4-[4-(1-Methyl-2-dimethylaminoethyl)-piperazinyl]-imidazolo[4,5-c]rifamycin SV [Verbindung 74]	128 µg/mL	32 µg/mL	128 µg/mL	0.5 µg/mL	0.5 µg/mL	128 µg/mL	32 µg/mL	32 µg/mL	–	–	–	–	–	–	–	–
4-[4-(2,2-Diethoxyethyl)-piperazinyl]-imidazolo[4,5-c]-rifamycin SV [Verbindung 66]	128 µg/mL	16 µg/mL	32 µg/mL	0.01 µg/mL	0.01 µg/mL	16 µg/mL	16 µg/mL	16 µg/mL	–	–	–	–	–	–	–	–
4-[4-(2,2-Dimethoxyethyl)-piperazinyl]-imidazolo- [4,5-c]rifamycin SV [Verbindung 65]	128 µg/mL	32 µg/mL	32 µg/mL	0.01 µg/mL	0.05 µg/mL	32 µg/mL	32 µg/mL	32 µg/mL	–	–	–	–	–	–	–	–
4-[4-(2-Dimethylaminoethyl)-piperazinyl-imidazolo[4,5-cl- rifamycin SV [Verbindung 69]	128 µg/mL	32 µg/mL	128 µg/mL	0.05 µg/mL	0.05 µg/mL	32 µg/mL	32 µg/mL	32 µg/mL	–	–	–	–	–	–	–	–
4-[4-(2-Ethoxyethyl)-piperazinyl]-imidazolo[4,5-c] rifamycin SV [Verbindung 64]	64 µg/mL	16 µg/mL	16 µg/mL	0.005 µg/mL	0.01 µg/mL	16 µg/mL	16 µg/mL	16 µg/mL	–	–	–	–	–	–	–	–
4-[4-(2-Methoxyethyl)-piperazinyl]-imidazolo[4,5-c]rifamycin SV [Verbindung 63]	32 µg/mL	8 µg/mL	32 µg/mL	0.01 µg/mL	0.01 µg/mL	16 µg/mL	8 µg/mL	8 µg/mL	–	–	–	–	–	–	–	–
4-[4-(2-Tetrahydrofurylmethyl)-piperazinyl]-imidazolo-[4,5-c]rifamycin SV [Verbindung 61]	32 µg/mL	4 µg/mL	32 µg/mL	0.005 µg/mL	0.005 µg/mL	16 µg/mL	4 µg/mL	4 µg/mL	–	–	–	–	–	–	–	–
4-[4-(l,3-Dimethylpropyl)-piperazinyl]-imidazolo[4,5-c]-rifamycin SV [Verbindung 43]	32 µg/mL	4 µg/mL	16 µg/mL	0.005 µg/mL	0.01 µg/mL	8 µg/mL	8 µg/mL	8 µg/mL	–	–	–	–	–	–	–	–
4-{4-[2-(1,3- Dioxolan-2-yl)-ethyl]-piperazinyl}-imidazolo-[4,5-c]rifamycin SV [Verbindung 62]	128 µg/mL	32 µg/mL	32 µg/mL	0.02 µg/mL	0.02 µg/mL	32 µg/mL	8 µg/mL	8 µg/mL	–	–	–	–	–	–	–	–
CCCN(CCC)c1nc2c3c(O)c4c(O)c(C)c5c(c4c2[nH]1)C(=O)C(C)(OC=CC(OC)C(C)C(OC(C)=O)C(C)C(O)C(C)C(O)C(C)C=CC=C(C)C(=O)N3)O5 (stereo not drawn) [Verbindung 7, 4-Dipropylamino-imidazolo[4,5-c]rifamycin SV]	–	–	–	–	–	–	–	–	16 µg/mL (≈ 19.5 µM)	8 µg/mL (≈ 9.74 µM)	8 µg/mL (≈ 9.74 µM)	5 ng/mL (≈ 0.00609 µM)	5 ng/mL (≈ 0.00609 µM)	8 µg/mL (≈ 9.74 µM)	8 µg/mL (≈ 9.74 µM)	8 µg/mL (≈ 9.74 µM)
COC1C=COC2(C)Oc3c(C)c(O)c4c(O)c(c5nc(N(C)C(C)C)[nH]c5c4c3C2=O)NC(=O)C(C)=CC=CC(C)C(O)C(C)C(O)C(C)C(OC(C)=O)C1C (stereo not drawn) [Verbindung 8, 4-(N-Isopropyl-N-methylamino)-imidazolo[4,5-c]rifamycin SV]	–	–	–	–	–	–	–	–	32 µg/mL (≈ 40.4 µM)	8 µg/mL (≈ 10.1 µM)	8 µg/mL (≈ 10.1 µM)	10 ng/mL (≈ 0.0126 µM)	10 ng/mL (≈ 0.0126 µM)	8 µg/mL (≈ 10.1 µM)	8 µg/mL (≈ 10.1 µM)	8 µg/mL (≈ 10.1 µM)
COC1C=COC2(C)Oc3c(C)c(O)c4c(O)c(c5nc(N(C)C6CCCC6)[nH]c5c4c3C2=O)NC(=O)C(C)=CC=CC(C)C(O)C(C)C(O)C(C)C(OC(C)=O)C1C (stereo not drawn) [Verbindung 10, 4-(N-Cyclopentyl-N-methylamino)-imidazolo[4,5-c]rifamycin SV]	–	–	–	–	–	–	–	–	16 µg/mL (≈ 19.5 µM)	4 µg/mL (≈ 4.88 µM)	8 µg/mL (≈ 9.77 µM)	5 ng/mL (≈ 0.00611 µM)	5 ng/mL (≈ 0.00611 µM)	4 µg/mL (≈ 4.88 µM)	4 µg/mL (≈ 4.88 µM)	4 µg/mL (≈ 4.88 µM)
CCCN(CC1CC1)c1nc2c3c(O)c4c(O)c(C)c5c(c4c2[nH]1)C(=O)C(C)(OC=CC(OC)C(C)C(OC(C)=O)C(C)C(O)C(C)C(O)C(C)C=CC=C(C)C(=O)N3)O5 (stereo not drawn) [Verbindung 11, 4-(N-Cyclopropylmethyl-N-propylamino)-imidazolo[4,5-c]rifamycin SV]	–	–	–	–	–	–	–	–	32 µg/mL (≈ 38.4 µM)	8 µg/mL (≈ 9.6 µM)	8 µg/mL (≈ 9.6 µM)	10 ng/mL (≈ 0.012 µM)	10 ng/mL (≈ 0.012 µM)	8 µg/mL (≈ 9.6 µM)	2 µg/mL (≈ 2.4 µM)	8 µg/mL (≈ 9.6 µM)

From patent EP0049683A2, “Imidazo-rifamycines, process for their preparation, pharmaceutical preparations containing them and their use” (CIBA-GEIGY AG, priority 1980, dated 1982)
